Consider 2 compounds from patent US12509451B2, “Heteroaryl amide inhibitors of CD38” (NAPA THERAPEUTICS LTD., priority 2020, dated 2025).

For one assay, the target named is T1, CD38 (Mus musculus, UniProt P56528).
T1 construct: aged mice (male C57BL6/J, 22 months old) were fasted for 4 hr; from tissue; host or cells: C57BL6/J mice (aged, DIO obese or LPS-challenged); liver, spleen, plasma
T1 sequence (P56528 1-304): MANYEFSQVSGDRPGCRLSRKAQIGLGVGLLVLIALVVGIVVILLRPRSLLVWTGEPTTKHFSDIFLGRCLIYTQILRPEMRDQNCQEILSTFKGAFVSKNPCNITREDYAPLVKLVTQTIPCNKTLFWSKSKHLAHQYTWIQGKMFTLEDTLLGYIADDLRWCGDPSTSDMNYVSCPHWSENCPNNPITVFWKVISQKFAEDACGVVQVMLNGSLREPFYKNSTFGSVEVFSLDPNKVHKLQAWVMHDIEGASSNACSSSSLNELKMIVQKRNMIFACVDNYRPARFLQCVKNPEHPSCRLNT
The assay is described as follows: In vivo efficacy against CD38 in aged mice, single oral dose, liver NAD+ metabolites. Here is the method: The in vivo efficacy of Compound 35 against the human CD38 enzyme was tested in aged mice after oral administration and determined by mass spec analysis of NAD+ metabolites levels in liver tissue. The two main CD38 substrates, NAD+ and NMN, and the 2 main byproducts of the CD38 enzymatic reaction, NAM and ADPR, were measured.
Briefly, aged mice (male C57BL6/J, 22 months old) were fasted for 4 hr and compound 35 was administered via oral gavage at a concentration of 3 mg/kg and 10 mg/kg. Mice were humanely euthanized for liver tissue harvesting at 1-, 3-, and 6-hr post-dosing. A vehicle control (DMSO:Solutol: SBE-CD, 2:5:93, v/v) was included to assess baseline NAD+ metabolites levels.
The procedure for tissue sample preparation and UPLC-MS/MS methods were adapted from Trammell et al. (2013) Compu. Struct. Biotechnol. J. […] (https://www.ncbi.nlm.nih.gov/pmc/articles/PMC3962138/). Briefly, frozen liver tissue was pulverized and resuspended in the extraction buffer (3:1 ethanol:10 mM aq. HEPES, pH 7.1). The samples were vortexed, sonicated briefly in a bath sonicator, and shaken at 55° C. for 3 min at 1,200 rpm. Samples were then centrifuged at 16,000×g for 10 min at 4° C., and the supernatant was dried by speedvac. The dried pellet was resuspended in 97% 10 mM ammonium acetate/3% acetonitrile, centrifuged at 16,000×g for 10 min at 4° C. and 2 μL was injected for LCMS analysis.
The UPLC-MS/MS analysis to measure NAD+ metabolites was performed using a Vanquish UHPLC system and a Q Exactive Orbitrap mass spectrometer with H-ESI ion source both from Thermo Scientific. UPLC separation was performed on a Hypercarb (2.1×100 mm, 5 μm particle size, Thermo) column following the method described in Trammell et al. (2013). Acquisition was carried out in positive ion, Parallel Reaction Monitoring (PRM) mode and targeted […] (t-SIM). The Thermo Xcalibur QualBrowser system software (version 4.2.47) and Freestyle (version 1.8.51.0) softwares was used for the data processing. For relative fold change, peak areas were normalized with respective internal standards, normalized to weight of the tissue sample used, and calculated as fold change relative at 0 h timepoint/vehicle group.

In assay [1] the target is T2, recombinant rat CD38 Protein (Rattus norvegicus, UniProt Q64244).
T2 construct: purchased Sino Biological
T2 sequence (Q64244 1-303): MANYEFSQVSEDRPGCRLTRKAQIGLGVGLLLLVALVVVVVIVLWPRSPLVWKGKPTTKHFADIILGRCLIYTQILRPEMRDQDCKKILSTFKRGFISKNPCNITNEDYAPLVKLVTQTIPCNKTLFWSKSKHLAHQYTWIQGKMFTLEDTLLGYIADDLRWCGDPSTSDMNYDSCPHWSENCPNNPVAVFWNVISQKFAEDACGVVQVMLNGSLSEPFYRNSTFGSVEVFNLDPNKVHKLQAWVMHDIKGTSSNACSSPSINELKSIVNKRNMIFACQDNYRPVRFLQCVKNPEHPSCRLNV
As to the kind of experiment: Fluorescence-based NAD+ hydrolase activity assay with rat recombinant CD38 protein (Assay 6). To be noted: read-out: Assay 6 Arithmetic mean IC50. The format is biochemical. Here is the method: This protocol was modified from the following references: Muller et al. (1983); Schultz et al. (2018); Matalonga et al. (2017); and de Oliveira et al. (2018), supra.
NAD+ hydrolase activity of the rat recombinant CD38 protein treated with test compounds was measured using a fluorescence-based assay. Briefly, recombinant rat CD38 Protein (Sino Biological) was resuspended in 44 μl/well of Sucrose-Tris Buffer (Sucrose 0.25 M, Tris pH 7.4 40 mM) and plated in a 96 well black plate (CORNING) at a density of 2.5 ng/well.
Each test compound was received in a powder state and dissolved in DMSO as a 25 mM stock solution. Each test compound was serially diluted in order to generate a dose-response curve. […]
The reaction was started adding nicotinamide 1,N^6-etheno-adenine dinucleotide (Sigma Aldrich) to reach a final concentration of 80 µM. The samples were excited at 321-15 nm and the emission of fluorescence was measured at 410-20 nm at 37° C. every minute for 1 hr in a Clariostar Microplate® reader (BMG LABTECH). NAD+ hydrolase activity was calculated as the slope of the linear portion of the fluorescence-time curve using the MARS data analysis software (BMG LABTECH). The data were uploaded in the Collaborative Drug Design (CDD) Software and for each compound the IC50 was calculated by the software. […] For each plate, the z-factor was also calculated as a plate quality using the CDD software.

On to `COc1cc(C(=O)Nc2ccnc(C(F)(F)F)c2)nc(-n2ccnc2)c1` [Compound 35, 6-(1H-imidazol-1-yl)-4-methoxy-N-(2-(trifluoromethyl)pyridin-4-yl)picolinamide], for which, at CD38 (single 3 mg/kg oral dose), the “ADPR levels in liver” value is reported as “decrease”, the “NAD+ levels in liver” value was “increase”, the “NAM levels in liver” value is “decrease” and the “NMN levels in liver” value is listed as “increase”. Besides, at CD38 (single 10 mg/kg oral dose), the “ADPR levels in liver” value is on record as “decrease”, the “NAD+ levels in liver” value is “increase”, the “NAM levels in liver” value was “decrease” and the “NMN levels in liver” value was “increase”.

`COCCOc1cc(C(=O)Nc2ccnc(C(F)(F)F)c2)nc(-n2ccnc2)n1` [Compound 39, 2-(1H-imidazol-1-yl)-6-(2-methoxyethoxy)-N-(2-(trifluoromethyl)pyridin-4-yl)pyrimidine-4-carboxamide]: the IC50 (commonly the midpoint of a concentration-inhibition curve) in assay [1] fell in the range of 1 to 50 nM.
